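The compound was tested at five concentrations on cells cultured in 96-well plates, with a 48-hour exposure period. GI50 marks 50% less growth.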 The source made the active and inactive calls. No stated cut-off is given here; in the data, active = GI50 up to about 1.1 µM and inactive = higher. *1 amine or outer side, *2 acyl side, *3 side chain or, on linkers, in order; H or OH if unused. Where a SMILES comes first, the peptide text is derived from it. Bridges are numbered along the chain shown (N, C = ends). [ ]: non-standard residue; d: D form. X36 = CC[C@H](C)[C@@H](N[*:1])[C@@H](O)CC(=O)O[C@H](C(=O)[C@H](C)C(=O)[*:2])C(C)C; NMeY = CN[C@@H](Cc1ccc(O)cc1)C(=O)O
Key:
Assay in all cases: NCI-60 cell line screen, 48 h
SN12C = tested on: SN12C
IGROV-1 = tested on: IGROV-1
OVCAR-8 = tested on: OVCAR-8
MDA-MB-435 = tested on: MDA-MB-435
UACC-62 = tested on: UACC-62
EKVX = tested on: EKVX
NCI-H460 = tested on: NCI-H460
NCI-H23 = tested on: NCI-H23
TK-10 = tested on: TK-10
HCC 2998 = tested on: HCC 2998
NCI-H522 = tested on: NCI-H522
NCI-H226 = tested on: NCI-H226
Hs-578T = tested on: Hs-578T
RPMI-8226 = tested on: RPMI-8226
SNB-19 = tested on: SNB-19
RXF 393 = tested on: RXF 393
HT-29 = tested on: HT-29
DU-145 = tested on: DU-145

SMILES | GI50 (SN12C) | GI50 (IGROV-1) | GI50 (OVCAR-8) | GI50 (MDA-MB-435) | GI50 (UACC-62) | GI50 (EKVX) | GI50 (NCI-H460) | GI50 (NCI-H23) | GI50 (TK-10) | GI50 (HCC 2998) | GI50 (NCI-H522) | GI50 (NCI-H226) | GI50 (Hs-578T) | GI50 (RPMI-8226) | GI50 (SNB-19) | GI50 (RXF 393) | GI50 (HT-29) | GI50 (DU-145)
CC[C@H](C)[C@H]1NC(=O)[C@@H](N)[C@@H](C)OC(=O)[C@H](Cc2ccc(OC)cc2)N(C)C(=O)[C@@H]2CCCN2C(=O)[C@H](CC(C)C)NC(=O)[C@@H](C)C(=O)[C@H](C(C)C)OC(=O)C[C@@H]1O (H-T[X36]LP[NMeY](Me); ester 1-C) | 29.6 µM (inactive) | 10.1 µM (inactive) | 50.7 µM (inactive) | 15.5 µM (inactive) | 29.9 µM (inactive) | 44.2 µM (inactive) | 30.3 µM (inactive) | 35.4 µM (inactive) | 36.7 µM (inactive) | 54.1 µM (inactive) | 10.5 µM (inactive) | 37.2 µM (inactive) | 12.2 µM (inactive) | 12.7 µM (inactive) | 28.7 µM (inactive) | 8.13 µM (inactive) | 3.67 µM (inactive) | –
CCCCNC(=S)Nc1nc(C(=O)NNC(=S)Nc2ccccc2)cs1 | > 100 µM (inactive) | – | > 100 µM (inactive) | 61 µM (inactive) | > 100 µM (inactive) | > 100 µM (inactive) | > 100 µM (inactive) | > 100 µM (inactive) | > 100 µM (inactive) | > 100 µM (inactive) | – | > 100 µM (inactive) | – | > 100 µM (inactive) | > 100 µM (inactive) | – | > 100 µM (inactive) | > 100 µM (inactive)
CSc1nc(SC)c2ncn(C3CC(Oc4ccc(C)cc4)C(COc4ccc(C)cc4)O3)c2n1 (stereo not drawn) | > 100 µM (inactive) | > 100 µM (inactive) | > 100 µM (inactive) | > 100 µM (inactive) | > 100 µM (inactive) | > 100 µM (inactive) | > 100 µM (inactive) | > 100 µM (inactive) | > 100 µM (inactive) | > 100 µM (inactive) | > 100 µM (inactive) | > 100 µM (inactive) | > 100 µM (inactive) | 8.71 µM (inactive) | > 100 µM (inactive) | – | > 100 µM (inactive) | > 100 µM (inactive)
Oc1c(Br)cc(/C=C/c2cccc(/C=C/c3cc(Br)c(O)c(Br)c3)n2)cc1Br | 9.68 µM (inactive) | 13.4 µM (inactive) | 13 µM (inactive) | 13.5 µM (inactive) | 15.7 µM (inactive) | 14.8 µM (inactive) | 2.96 µM (inactive) | – | 14.2 µM (inactive) | 6.5 µM (inactive) | – | – | 17.5 µM (inactive) | 11.5 µM (inactive) | 9.98 µM (inactive) | – | 12.6 µM (inactive) | < 0.01 µM (active)
Cc1ccc(S(=O)(=O)NC(CCC(=O)NN)C(=O)NN)cc1 (stereo not drawn) | – | > 100 µM (inactive) | > 100 µM (inactive) | > 100 µM (inactive) | > 100 µM (inactive) | > 100 µM (inactive) | 0.067 µM (active) | > 100 µM (inactive) | > 100 µM (inactive) | – | > 100 µM (inactive) | > 100 µM (inactive) | > 100 µM (inactive) | > 100 µM (inactive) | > 100 µM (inactive) | > 100 µM (inactive) | > 100 µM (inactive) | –
CCSc1[nH]c(Nc2nc(-c3ccccc3)n(-c3ccccc3)n2)c(C(N)=O)c1C(N)=O | > 10 µM (inactive) | > 10 µM (inactive) | 6.64 µM (inactive) | > 10 µM (inactive) | > 10 µM (inactive) | > 10 µM (inactive) | – | > 10 µM (inactive) | > 10 µM (inactive) | > 10 µM (inactive) | – | – | – | > 10 µM (inactive) | – | 6.5 µM (inactive) | > 10 µM (inactive) | > 10 µM (inactive)
C=CCN1C[C@H](C)N([C@H](c2ccc(C(=O)N(CC)CCO)cc2)c2cccc(OC)c2)C[C@H]1C | > 100 µM (inactive) | > 100 µM (inactive) | > 100 µM (inactive) | > 100 µM (inactive) | > 100 µM (inactive) | > 100 µM (inactive) | – | > 100 µM (inactive) | > 100 µM (inactive) | – | > 100 µM (inactive) | 50.1 µM (inactive) | > 100 µM (inactive) | 40 µM (inactive) | > 100 µM (inactive) | – | 47.6 µM (inactive) | > 100 µM (inactive)
O=C(COc1ccc(OCC(=O)N2C(=O)CN(c3ccc(Cl)cc3)C2=S)cc1)N1C(=O)CN(c2ccc(Cl)cc2)C1=S | 30.5 µM (inactive) | 26.6 µM (inactive) | – | 31.2 µM (inactive) | 16.5 µM (inactive) | 6.62 µM (inactive) | 23.3 µM (inactive) | 32.5 µM (inactive) | 24.4 µM (inactive) | 21.7 µM (inactive) | 26.5 µM (inactive) | 23.9 µM (inactive) | – | 21.2 µM (inactive) | 24.4 µM (inactive) | 22.8 µM (inactive) | 31.4 µM (inactive) | 43.2 µM (inactive)
O=C(C=P(c1ccccc1)(c1ccccc1)c1ccccc1)C12CC3CC(CC(C3)C1)C2 | 15.9 µM (inactive) | 16 µM (inactive) | 17.7 µM (inactive) | 12.9 µM (inactive) | 14.7 µM (inactive) | 15.6 µM (inactive) | 16.4 µM (inactive) | 16.7 µM (inactive) | 11.8 µM (inactive) | 16.8 µM (inactive) | 6.55 µM (inactive) | – | 16.5 µM (inactive) | 4.06 µM (inactive) | 12.6 µM (inactive) | – | 11.2 µM (inactive) | 19.1 µM (inactive)
Nc1nc(NNc2ccccc2F)cc(=O)[nH]1 | > 100 µM (inactive) | > 100 µM (inactive) | > 100 µM (inactive) | > 100 µM (inactive) | – | > 100 µM (inactive) | > 100 µM (inactive) | – | > 100 µM (inactive) | > 100 µM (inactive) | – | > 100 µM (inactive) | > 100 µM (inactive) | 54.2 µM (inactive) | > 100 µM (inactive) | – | > 100 µM (inactive) | > 100 µM (inactive)
CC(C)=CCC[C@](C)(O[C@@H]1O[C@H](CO)[C@@H](O)[C@H](O)[C@H]1O)[C@H]1CC[C@]2(C)[C@@H]1[C@H](O)C[C@@H]1[C@@]3(C)CC[C@H](O)C(C)(C)[C@@H]3[C@@H](O[C@@H]3O[C@H](CO)[C@@H](O)[C@H](O)[C@H]3O[C@@H]3O[C@@H](C)[C@H](O)[C@@H](O)[C@H]3O)C[C@]12C.CC(C)=CCC[C@](C)(O[C@@H]1O[C@H](CO)[C@@H](O)[C@H](O)[C@H]1O)[C@H]1CC[C@]2(C)[C@@H]1[C@H](O)C[C@@H]1[C@@]3(C)CC[C@H](O)C(C)(C)[C@@H]3[C@@H](O[C@@H]3O[C@H](CO)[C@@H](O)[C@H](O)[C@H]3O[C@@H]3O[C@H](CO)[C@@H](O)[C@H](O)[C@H]3O)C[C@]12C | > 75 µM (inactive) | > 75 µM (inactive) | 34.9 µM (inactive) | > 75 µM (inactive) | > 75 µM (inactive) | > 75 µM (inactive) | 7.5 µM (inactive) | > 75 µM (inactive) | > 75 µM (inactive) | > 75 µM (inactive) | > 75 µM (inactive) | > 75 µM (inactive) | 51.3 µM (inactive) | > 75 µM (inactive) | > 75 µM (inactive) | – | > 75 µM (inactive) | > 75 µM (inactive)
COc1nc(C#CC2CCCCC2)nc(OC)n1 | 2.2 µM (inactive) | 3.79 µM (inactive) | 1.61 µM (inactive) | 2.08 µM (inactive) | 1.28 µM (inactive) | 16 µM (inactive) | 5.6 µM (inactive) | 1.45 µM (inactive) | – | – | 1.59 µM (inactive) | – | 3.58 µM (inactive) | 1.51 µM (inactive) | 16.6 µM (inactive) | 4.91 µM (inactive) | 4.81 µM (inactive) | 3.92 µM (inactive)
CC1(C)COC(c2cccc(C3=NC(C)(C)CO3)c2)=N1 | – | > 100 µM (inactive) | > 100 µM (inactive) | > 100 µM (inactive) | 64.3 µM (inactive) | > 100 µM (inactive) | > 100 µM (inactive) | > 100 µM (inactive) | > 100 µM (inactive) | > 100 µM (inactive) | – | > 100 µM (inactive) | – | > 100 µM (inactive) | > 100 µM (inactive) | – | > 100 µM (inactive) | > 100 µM (inactive)
O=C(O)CN1CCN2CCOCCOCCN(CC1)CCN(CC(=O)O)CC2 | > 100 µM (inactive) | > 100 µM (inactive) | > 100 µM (inactive) | > 100 µM (inactive) | > 100 µM (inactive) | > 100 µM (inactive) | > 100 µM (inactive) | – | > 100 µM (inactive) | – | > 100 µM (inactive) | > 100 µM (inactive) | > 100 µM (inactive) | > 100 µM (inactive) | > 100 µM (inactive) | – | > 100 µM (inactive) | > 100 µM (inactive)
Cc1c(NC(=O)CCl)c(=O)oc2c(C)c3occc(=O)c3cc12 | – | 11.6 µM (inactive) | 13.9 µM (inactive) | – | – | 18.9 µM (inactive) | 10.7 µM (inactive) | – | 14.5 µM (inactive) | 16.9 µM (inactive) | – | – | 15.5 µM (inactive) | 7.87 µM (inactive) | 15.8 µM (inactive) | – | 14.9 µM (inactive) | 23.7 µM (inactive)
CC(C)(CO)NC(=O)c1cccs1 | > 100 µM (inactive) | > 100 µM (inactive) | > 100 µM (inactive) | > 100 µM (inactive) | > 100 µM (inactive) | > 100 µM (inactive) | > 100 µM (inactive) | > 100 µM (inactive) | > 100 µM (inactive) | > 100 µM (inactive) | > 100 µM (inactive) | – | – | > 100 µM (inactive) | > 100 µM (inactive) | – | > 100 µM (inactive) | > 100 µM (inactive)

From ChEMBL document CHEMBL1201862, “PubChem BioAssay data set” (2004)
